# Patent US11214594B2, “Antimicrobial peptide having synergistic antibacterial effect with antibiotics on multidrug resistant bacteria, and use thereof” (priority 2016, dated 2022)
# Where two headings read alike, the source gives them in different places. Where a SMILES comes first, the peptide text is derived from it.
# Columns and labels:
# E. coli [1] = assay: microbe, parasite or virus in culture; format: cell-based, Escherichia coli
# How it was run: (§1)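 Peptides were serially diluted twofold in Mueller-Hinton medium and combined 1:1 with bacterial suspensions prepared at 2×10^6 CFU. Readout was the minimal inhibitory concentration, i.e. the lowest concentration with no growth.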
# MDREC 1229 [2] = assay: microbe, parasite or virus in culture; format: cell-based, Escherichia coli
# How it was run: as §1
# P. aeruginosa = assay: microbe, parasite or virus in culture; format: cell-based, Pseudomonas aeruginosa
# How it was run: as §1
# A. baumannii [3] = assay: microbe, parasite or virus in culture; format: cell-based, Acinetobacter baumannii
# How it was run: as §1
# MDRAB 12035 [4] = assay: microbe, parasite or virus in culture; format: cell-based, Acinetobacter baumannii
# How it was run: as §1
# MDRST 8009 = format: cell-based, Salmonella typhimurium; conditions: agent alone
# How it was run: as §1
# B. subtilis = assay: microbe, parasite or virus in culture; format: cell-based, Bacillus subtilis
# How it was run: as §1
# S. epidermidis = assay: microbe, parasite or virus in culture; format: cell-based, Staphylococcus epidermidis
# How it was run: as §1
# S. aureus = assay: microbe, parasite or virus in culture; format: cell-based, Staphylococcus aureus
# How it was run: as §1
# E. coli [5] = assay: MIC of antibiotic during combined treatment with antimicrobial peptide; format: cell-based, Escherichia coli; conditions: for Antibiotic MIC, Erythromycin / Antibiotic MIC, Linezolid / Antibiotic MIC, Vancomycin: E. coli
# How it was run: (§2)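 Antibiotic diluted in MH medium, dispensed per well with peptide; setup repeated with roles reversed; MIC read per combination.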
# A. baumannii [6] = assay: as above; format: cell-based, Acinetobacter baumannii; conditions: for Antibiotic MIC, Erythromycin / Antibiotic MIC, Linezolid / Antibiotic MIC, Vancomycin: A. baumannii
# How it was run: as §2
# E. coli [7] = format: cell-based, Escherichia coli; conditions: E. coli
# How it was run: (§3)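 Antibiotic MIC came from antibiotic dilutions added to bacteria (2×10^6 CFU/ml, MH medium) already combined with peptide serially diluted 2:1 from its own MIC. Swapping the roles of the two agents gave the peptide MIC.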
# MDREC 1229 [8] = format: cell-based, Escherichia coli
# How it was run: as §3
# A. baumannii [9] = assay: MIC of antimicrobial peptide during combined treatment with antibiotic; format: cell-based, Acinetobacter baumannii
# How it was run: as §3
# MDRAB 12035 [10] = assay: as above; format: cell-based, Acinetobacter baumannii
# How it was run: as §3
# [11] = combined with peptide at 1 μg/ml
# [12] = combined with peptide at 2 μg/ml
# [13] = combined with peptide at 4 μg/ml
# [14] = combined with peptide at 6 μg/ml
# [15] = combined with peptide at 8 μg/ml
# [16] = combined with peptide at 16 μg/ml
# [17] = combined with peptide at 32 μg/ml
# [18] = combined with peptide at 64 μg/ml
# [19] = with Erythromycin […] (Conc./MIC 1)
# [20] = erythromycin 4 μg/ml (Conc./MIC 1/8)
# [21] = erythromycin 8 μg/ml (Conc./MIC 1/4)
# [22] = erythromycin 16 μg/ml (Conc./MIC 1/2)
# [23] = erythromycin 32 μg/ml (Conc./MIC 1)
# [24] = vancomycin 512 μg/ml (Conc./MIC 1/2)
# [25] = vancomycin 1024 μg/ml (Conc./MIC 1)
compound,measurement,setting,value
"CC[C@H](C)[C@H](NC(=O)[C@H](CCCCN)NC(=O)[C@H](Cc1c[nH]c2ccccc12)NC(=O)[C@@H](N)CCCNC(=N)N)C(=O)N[C@@H](Cc1ccccc1)C(=O)N[C@@H](CCCCN)C(=O)N[C@@H](CCCCN)C(=O)N[C@H](C(=O)N1CCC[C@H]1C(=O)N[C@@H](CCCCN)C(=O)N[C@@H](CC(C)C)C(=O)N[C@@H](CC(C)C)C(=O)N[C@@H](Cc1c[nH]cn1)C(=O)N[C@@H](CO)C(=O)N[C@@H](Cc1ccccc1)C(=O)N[C@@H](CCCCN)C(=O)N[C@@H](CCCCN)C(=O)N[C@@H](Cc1ccccc1)C(N)=O)[C@@H](C)CC [PapMA-7, RWK IFK KIP KLL HSF KKF-NH2] (H-RWKIFKKIPKLLHSFKKF-NH2; N-terminus assumed)",Minimal inhibitory concentration MIC,E. coli [1]; 16 h,32 µg/mL
same,Antibacterial activity relative to PapMA-1,E. coli [1]; E. coli,at least twice as high
same,Minimal inhibitory concentration MIC,MDREC 1229 [2],64 µg/mL
same,Minimal inhibitory concentration MIC,P. aeruginosa,16 µg/mL
same,Antibacterial activity (in words),P. aeruginosa; P. aeruginosa and S. typhimurium,significantly increased
same,Minimal inhibitory concentration MIC,A. baumannii [3],16 µg/mL
same,"Peptide MIC, peptide alone",A. baumannii [3],16 µg/mL
same,Minimal inhibitory concentration MIC,MDRAB 12035 [4],32 µg/mL
same,"Peptide MIC, peptide alone",MDRAB 12035 [4],32 µg/mL
same,Minimal inhibitory concentration MIC,MDRST 8009,32 µg/mL
same,Minimal inhibitory concentration MIC,B. subtilis,>128 µg/mL
same,Minimal inhibitory concentration MIC,S. epidermidis,>128 µg/mL
same,Minimal inhibitory concentration MIC,S. aureus,>128 µg/mL
same,Synergistic effect of antibacterial activity with existing antibiotics compared with PapMA-1,E. coli [5]; E. coli and MDREC1229,higher level than the PapMA-1 peptide
same,"Antibiotic MIC, Erythromycin",E. coli [5]; erythromycin combined with peptide at 1 μg/ml,64 µg/mL
same,"Antibiotic MIC, Erythromycin",E. coli [5]; erythromycin combined with peptide at 2 μg/ml,32 µg/mL
same,"Antibiotic MIC, Erythromycin",E. coli [5]; erythromycin combined with peptide at 4 μg/ml,4 µg/mL
same,"Antibiotic MIC, Erythromycin",E. coli [5]; erythromycin combined with peptide at 6 μg/ml,2 µg/mL
same,"Antibiotic MIC, Erythromycin",E. coli [5]; erythromycin combined with peptide at 8 μg/ml,0.25 µg/mL
same,"Antibiotic MIC, Erythromycin",E. coli [5]; erythromycin combined with peptide at 16 μg/ml,0.125 µg/mL
same,"Antibiotic MIC, Erythromycin",E. coli [5]; erythromycin combined with peptide at 32 μg/ml,0 µg/mL
same,"Antibiotic MIC, Erythromycin",E. coli [5]; erythromycin combined with peptide at 64 μg/ml,0 µg/mL
same,"Antibiotic MIC, Linezolid",E. coli [5]; linezolid combined with peptide at 1 μg/ml,>128 µg/mL
same,"Antibiotic MIC, Linezolid",E. coli [5]; linezolid combined with peptide at 2 μg/ml,128 µg/mL
same,"Antibiotic MIC, Linezolid",E. coli [5]; linezolid combined with peptide at 4 μg/ml,8 µg/mL
same,"Antibiotic MIC, Linezolid",E. coli [5]; linezolid combined with peptide at 6 μg/ml,4 µg/mL
same,"Antibiotic MIC, Linezolid",E. coli [5]; linezolid combined with peptide at 8 μg/ml,4 µg/mL
same,"Antibiotic MIC, Linezolid",E. coli [5]; linezolid combined with peptide at 16 μg/ml,1 µg/mL
same,"Antibiotic MIC, Linezolid",E. coli [5]; linezolid combined with peptide at 32 μg/ml,0 µg/mL
same,"Antibiotic MIC, Linezolid",E. coli [5]; linezolid combined with peptide at 64 μg/ml,0 µg/mL
same,"Antibiotic MIC, Vancomycin",E. coli [5]; vancomycin combined with peptide at 1 μg/ml,>128 µg/mL
same,"Antibiotic MIC, Vancomycin",E. coli [5]; vancomycin combined with peptide at 2 μg/ml,128 µg/mL
same,"Antibiotic MIC, Vancomycin",E. coli [5]; vancomycin combined with peptide at 4 μg/ml,32 µg/mL
same,"Antibiotic MIC, Vancomycin",E. coli [5]; vancomycin combined with peptide at 6 μg/ml,8 µg/mL
same,"Antibiotic MIC, Vancomycin",E. coli [5]; vancomycin combined with peptide at 8 μg/ml,4 µg/mL
same,"Antibiotic MIC, Vancomycin",E. coli [5]; vancomycin combined with peptide at 16 μg/ml,1 µg/mL
same,"Antibiotic MIC, Vancomycin",E. coli [5]; vancomycin combined with peptide at 32 μg/ml,0 µg/mL
same,"Antibiotic MIC, Vancomycin",E. coli [5]; vancomycin combined with peptide at 64 μg/ml,0 µg/mL
same,Synergistic effect of antibacterial activity with existing antibiotics compared with PapMA-1,A. baumannii [6]; A. baumannii and MDRAB 12035,higher level than the PapMA-1 peptide
same,"Antibiotic MIC, Erythromycin",A. baumannii [6]; [11],16 µg/mL
same,"Antibiotic MIC, Linezolid",A. baumannii [6]; [11],128 µg/mL
same,"Antibiotic MIC, Vancomycin",A. baumannii [6]; [11],>128 µg/mL
same,"Antibiotic MIC, Erythromycin",A. baumannii [6]; [12],8 µg/mL
same,"Antibiotic MIC, Linezolid",A. baumannii [6]; [12],32 µg/mL
same,"Antibiotic MIC, Vancomycin",A. baumannii [6]; [12],64 µg/mL
same,"Antibiotic MIC, Erythromycin",A. baumannii [6]; [13],2 µg/mL
same,"Antibiotic MIC, Linezolid",A. baumannii [6]; [13],8 µg/mL
same,"Antibiotic MIC, Vancomycin",A. baumannii [6]; [13],16 µg/mL
same,"Antibiotic MIC, Erythromycin",A. baumannii [6]; [14],1 µg/mL
same,"Antibiotic MIC, Linezolid",A. baumannii [6]; [14],2 µg/mL
same,"Antibiotic MIC, Vancomycin",A. baumannii [6]; [14],4 µg/mL
same,"Antibiotic MIC, Erythromycin",A. baumannii [6]; [15],0.125 µg/mL
same,"Antibiotic MIC, Linezolid",A. baumannii [6]; [15],1 µg/mL
same,"Antibiotic MIC, Vancomycin",A. baumannii [6]; [15],2 µg/mL
same,"Antibiotic MIC, Erythromycin",A. baumannii [6]; [16],0 µg/mL
same,"Antibiotic MIC, Linezolid",A. baumannii [6]; [16],0 µg/mL
same,"Antibiotic MIC, Vancomycin",A. baumannii [6]; [16],0 µg/mL
same,"Antibiotic MIC, Erythromycin",A. baumannii [6]; [17],0 µg/mL
same,"Antibiotic MIC, Linezolid",A. baumannii [6]; [17],0 µg/mL
same,"Antibiotic MIC, Vancomycin",A. baumannii [6]; [17],0 µg/mL
same,"Antibiotic MIC, Erythromycin",A. baumannii [6]; [18],0 µg/mL
same,"Antibiotic MIC, Linezolid",A. baumannii [6]; [18],0 µg/mL
same,"Antibiotic MIC, Vancomycin",A. baumannii [6]; [18],0 µg/mL
same,Peptide MIC,E. coli [7]; [19],0 µg/mL
same,Peptide MIC,E. coli [7]; with Linezolid […] (Conc./MIC 1),0 µg/mL
same,Peptide MIC,E. coli [7]; with Vancomycin 1024 μg/ml (Conc./MIC 1),0 µg/mL
same,Peptide MIC,MDREC 1229 [8]; [19],0 µg/mL
same,Peptide MIC,MDREC 1229 [8]; with Linezolid 512 μg/ml (Conc./MIC 1),0 µg/mL
same,Peptide MIC during treatment with antibiotic,A. baumannii [9]; [20],2 µg/mL
same,Peptide MIC during treatment with antibiotic,A. baumannii [9]; [21],2 µg/mL
same,Peptide MIC during treatment with antibiotic,A. baumannii [9]; [22],1 µg/mL
same,Peptide MIC during treatment with antibiotic,A. baumannii [9]; [23],0 µg/mL
same,Peptide MIC during treatment with antibiotic,A. baumannii [9]; linezolid 32 μg/ml (Conc./MIC 1/8),2 µg/mL
same,Peptide MIC during treatment with antibiotic,A. baumannii [9]; linezolid 64 μg/ml (Conc./MIC 1/4),2 µg/mL
same,Peptide MIC during treatment with antibiotic,A. baumannii [9]; linezolid […] (Conc./MIC 1),0 µg/mL
same,Peptide MIC during treatment with antibiotic,A. baumannii [9]; linezolid […] (Conc./MIC 1/2),1 µg/mL
same,Peptide MIC during treatment with antibiotic,A. baumannii [9]; [24],0.25 µg/mL
same,Peptide MIC during treatment with antibiotic,A. baumannii [9]; [25],0 µg/mL
same,Peptide MIC during treatment with antibiotic,A. baumannii [9]; vancomycin […] (Conc./MIC 1/4),0.25 µg/mL
same,Peptide MIC during treatment with antibiotic,A. baumannii [9]; vancomycin […] (Conc./MIC 1/8),2 µg/mL
same,Peptide MIC during treatment with erythromycin,MDRAB 12035 [10]; [20],2 µg/mL
same,Peptide MIC during treatment with erythromycin,MDRAB 12035 [10]; [21],1 µg/mL
same,Peptide MIC during treatment with erythromycin,MDRAB 12035 [10]; [22],1 µg/mL
same,Peptide MIC during treatment with erythromycin,MDRAB 12035 [10]; [23],0 µg/mL
same,Peptide MIC during treatment with linezolid,MDRAB 12035 [10]; linezolid 64 μg/ml (Conc./MIC 1/8),1 µg/mL
same,Peptide MIC during treatment with linezolid,MDRAB 12035 [10]; linezolid 512 μg/ml (Conc./MIC 1),0 µg/mL
same,Peptide MIC during treatment with linezolid,MDRAB 12035 [10]; linezolid […] (Conc./MIC 1/2),1 µg/mL
same,Peptide MIC during treatment with linezolid,MDRAB 12035 [10]; linezolid […] (Conc./MIC 1/4),1 µg/mL
same,Peptide MIC during treatment with vancomycin,MDRAB 12035 [10]; [24],0.5 µg/mL
same,Peptide MIC during treatment with vancomycin,MDRAB 12035 [10]; [25],0.25 µg/mL
same,Peptide MIC during treatment with vancomycin,MDRAB 12035 [10]; vancomycin […] (Conc./MIC 1/4),1 µg/mL
same,Peptide MIC during treatment with vancomycin,MDRAB 12035 [10]; vancomycin […] (Conc./MIC 1/8),1 µg/mL
